Results as given in patent US20210252159A1, “CONJUGATES OF CARTILAGE-HOMING PEPTIDES” (priority 2018, published 2021).
Read-outs that look alike come from different tables or passages of the source. Positions of bridges follow the written chain, without caps; N, C: chain ends. Residues, ends and D or L forms follow the SMILES beside them. *: point of attachment. X6 = C[C@@H]1C[C@H]2[C@@H]3CCC4=CC(=O)C=C[C@]4(C)[C@@]3(F)[C@@H](O)C[C@]2(C)[C@@]1(O)C(=O)COC(=O)CC1(CC(=O)*)CCCC1; X5 = C[C@@H]1C[C@H]2[C@@H]3CCC4=CC(=O)C=C[C@]4(C)[C@@]3(F)[C@@H](O)C[C@]2(C)[C@@]1(O)C(=O)COC(=O)CCCCC(=O)*

Tests used:
[1] = Hydrolysis assay of peptide-drug conjugates in rat plasma (free drug by LC/MS); format: in vitro ADME; details: 37° C.
Method: Peptide-drug conjugate peptide(SEQ ID NO: 105)-DMA-dCIC was incubated in rat plasma at 37° C. Samples were removed at regular intervals, processed by solvent extraction, and analyzed by LC/MS to quantitate free dCIC. 11 time-points were measured between 5 min and 56 hours with 3 replicates per time point. The assay was repeated two times.
In order to determine hydrolysis rates, conjugates can be diluted in PBS, rat plasma, or human plasma and incubated at 37 degrees. Samples can be taken at designated time-points (e.g., 1, 2, 3, 5, 10, 15, 20, 25, 30, 45, 60, or 90 minutes and/or hours after administration). Internal standards such as triamcinolone acetonide (TAA) can be added as an internal standard, and then active agent/TAA can be extracted using acetonitrile, for example. The samples can be dried down, reconstituted, and analyzed by LC/MS. Data can be normalized using Dex AUC/TAA AUC. Percent hydrolysis can be calculated using the average ratio for active agent AUC/TAA AUC at a time point of maximal drug release. A general method can include using a lyophilized, purified peptide-drug conjugates reconstituted in DMSO following production to generate stock solution at 20 mg/mL. Each conjugate stock can be brought to 0.25 mg/mL in each hydrolysis condition (1×DPBS, human plasma and rat plasma) in triplicate and rocked at 37° C. To quantitate free active agent, 100 μl of the hydrolyzed conjugate solution can be transferred into 1 mL acetonitrile at 4° C. at which time all plasma proteins and intact conjugates can precipitate. This can be performed repeatedly to generate a series of time points (0 hr, 0.5 hr, 1 hr, 2 hr, 4 hr, 6 hr, 8 hr, 24 hr, 32 hr). The acetonitrile solution can be spun at 17,000 g for 5 minutes, and the supernatant removed and added to a 96 well block. The pellet can then be resuspended in 500 μl acetonitrile and re-pelleted as before. The supernatant can be removed and added to the same well in the block. Samples can be prepared for analysis by drying under a nitrogen stream followed by reconstitution in 110 μl 45:55 ACN:Citrate 10 mM pH 5.5. To ensure optimal recovery the block can be shaken via plate shaker at 7,000 rpm for 5 minutes during the reconstitution step. Prior to LC/MS the samples can be transferred to a 96 well plate and centrifuged at 6,500 g for 15 minutes. Analysis can be performed on an Agilent 1260 Infinity series HPLC with inline 6120 single quad MS using acetonitrile, water (+0.1% TFA) gradient (shown below) on an InfinityLab Poroshell SB-C18 column. Quantification of free active agent (or drug) can be achieved through integration of active agent peaks of the TIC.
Lyophilized, purified peptide-drug conjugates were reconstituted in DMSO following production to generate stock solution at 20 mg/mL. Each conjugate stock was brought to 0.25 mg/mL in each hydrolysis condition (1×DPBS, human plasma and rat plasma) in triplicate and rocked at 37° C.
To quantitate free dexamethasone (Dex), 100 μl of the hydrolyzed conjugate solution was transferred into 1 mL acetonitrile at 4° C. at which time all plasma proteins and intact conjugates precipitated. This was performed repeatedly to generate a series of time points (0 hr, 0.5 hr, 1 hr, 2 hr, 4 hr, 6 hr, 8 hr, 24 hr, 32 hr). The corticosteroid triamcinolone acetonide (25 μl, 0.1 mg/mL in 45:55 ACN:Citrate 10 mM pH 5.5) was supplemented into the acetonitrile solution as an internal standard. The acetonitrile solution was spun at 17,000 g for 5 minutes, and the supernatant removed and added to a 96 well block. The pellet was resuspended in 500 μl acetonitrile and re-pelleted as before. The supernatant was removed and added to the same well in the block.
Samples were prepared for analysis by drying under a nitrogen stream followed by reconstitution in 110 μl 45:55 ACN:Citrate 10 mM pH 5.5. To ensure optimal recovery the block was shaken via plate shaker at 7,000 rpm for 5 minutes during the reconstitution step. […]

[2] = tested on: CIA rats; format: in vivo
Method: Ankle diameter measurements were recorded daily starting on induction day 9 and continuing for the duration of the study. […] Each treatment was administered on the day of enrollment (study day 0) and repeated daily for 7 days (study day 6). Rats were euthanized 3 h after the final dose and blood and organs were collected for testing.

[3] = IL-1β challenge rat model, dose-ranging study: CBC, organ weights, tolerability; format: in vivo, rats; details: 7 hours post administration
Method: IL-6 was measured in knee lavage fluid using a Luminex assay and levels were normalized to total protein in the lavage fluid (FIG. 24). Assessment of the PD inflammatory marker IL-6 in the knee joints of rats challenged with IL-1β was performed. Terminal synovial fluid was collected from all animals and analyzed by Luminex 200 for IL-6 cytokine concentrations using EMD Milliplex MAP Rat Cytokine/Chemokine Magnetic Panel ([…]-65K). […] Doses are listed as nmol/kg The masses of these doses are given below in TABLE 16. Two hours and forty-five minutes (i.e., 2.75 hrs) after administration of the test agents, animals were gently heated and blood was drawn from the tail vein for CBC analysis. Animals were then anesthetized with inhaled isoflurane and injected with 30 ng of IL-1β into the right knee (except for no IL-1β group). Four hours after administration of IL-1β (seven hours after administration of test agent) the animals were euthanized. Blood was drawn for a second CBC analysis and the right knee was lavaged for detection of IL-6 in the lavage fluid using a Luminex assay. Thymus and spleen were harvested and their organ weights determined.
In the same animals for which IL-6 secretion was measured, CBC data (e.g., lymphocyte counts) were also analyzed (FIG. 25) at an early time-point, 2.75 hrs post administration of the test article (FIG. 25A), and at euthanasia 7 hrs post administration (FIG. 25B). All treatments were administered as described above for the measurement of IL-6 secretion.
All treatments and test articles were administered as described above, except for an additional treatment group that received 510 nmol/kg of the peptide-drug conjugate peptide(SEQ ID NO: 105)-DMA-dCIC.

[4] = in rat plasma, free Dex, read-out: Hydrolysis half-life (converted)
[5] = 0.05 mg/kg daily for 7 days, study day 6

With `CC[C@H](C)[C@@H]1NC(=O)[C@@H]2CSSC[C@H](NC(=O)[C@H](CCCNC(=N)N)NC(=O)[C@@H](NC(=O)[C@H](CC(N)=O)NC(=O)[C@@H](NC(=O)[C@@H]3CCCN3C(=O)[C@@H](NC(=O)CNC(=O)[C@H](CO)NC(=O)CNC(=O)CC3(CC(=O)OCC(=O)[C@@]4(O)[C@H](C)C[C@H]5[C@@H]6CCC7=CC(=O)C=C[C@]7(C)[C@@]6(F)[C@@H](O)C[C@@]54C)CCCC3)C(C)C)[C@@H](C)CC)C(C)C)C(=O)N[C@@H](CCCNC(=N)N)C(=O)NCC(=O)N[C@@H](CO)C(=O)N[C@@H](CCCNC(=N)N)C(=O)N[C@@H](CC(=O)O)C(=O)N[C@H]3CSSC[C@H](NC(=O)[C@H](CCCNC(=N)N)NC(=O)[C@H](CO)NC(=O)[C@H](CC(N)=O)NC1=O)C(=O)N[C@@H](Cc1c[nH]cn1)C(=O)N[C@H](C(=O)N[C@H](C(=O)N1CCC[C@H]1C(=O)O)[C@@H](C)O)CSSC[C@H](NC(=O)[C@@H]1CCCN1C(=O)[C@H](CC(=O)O)NC(=O)[C@H](CC(C)C)NC3=O)C(=O)N[C@@H](CCCNC(=N)N)C(=O)N[C@@H](CCCNC(=N)N)C(=O)N[C@@H](C)C(=O)NCC(=O)N[C@@H](CCSC)C(=O)N[C@@H](CCCNC(=N)N)C(=O)N[C@@H](Cc1ccccc1)C(=O)NCC(=O)N[C@@H](CCCNC(=N)N)C(=O)N2` [Compound 26, Peptide(SEQ ID NO: 105)-3,3,-tetramethylene-glutaric acid-Dex] (X6-GSGVPINVRCRGSRDCLDPCRRAGMRFGRCINSRCHCTP-OH; disulfide 10-30, 16-35, 20-37 (inferred); C-terminus assumed) the half-life at 0.25 mg/mL [1, 4] was 1.1 h.

In the case of `C[C@@H]1C[C@H]2[C@@H]3CCC4=CC(=O)C=C[C@]4(C)[C@@]3(F)[C@@H](O)C[C@]2(C)[C@@]1(O)C(=O)COP(=O)(O)O` [DexSP, Dexamethasone sodium phosphate, reference compound], the “ankle diameter on study day 6 versus day 0, compared to vehicle” value ([2]; 0.05 mg/kg) is reported as “statistically different than vehicle”, the “plasma lymphocyte counts as compared to vehicle” value [2, 5] is reported as “significantly reduced” and the “spleen weight as compared to vehicle” value [2, 5] is reported as “significantly reduced”. The “thymus weight as compared to vehicle” value [2, 5] was “significantly reduced”, the ankle inflammation ([2]; highest dose of 0.05 mg/kg daily for 7 days) was “effective at reducing ankle inflammation” and the ankle inflammation ([2]; lower doses (0.001, 0.005, 0.01 mg/kg) daily for 7 days) was “indistinguishable from vehicle”. For the same compound, the “spleen and thymus weights at euthanasia” value [3] was “reduction in the weight of both organs”.

`CC[C@H](C)[C@@H]1NC(=O)[C@@H]2CSSC[C@H](NC(=O)[C@H](CCCNC(=N)N)NC(=O)[C@@H](NC(=O)[C@H](CC(N)=O)NC(=O)[C@@H](NC(=O)[C@@H]3CCCN3C(=O)[C@@H](NC(=O)CNC(=O)[C@H](CO)NC(=O)CNC(=O)CCCCC(=O)OCC(=O)[C@@]3(O)[C@H](C)C[C@H]4[C@@H]5CCC6=CC(=O)C=C[C@]6(C)[C@@]5(F)[C@@H](O)C[C@@]43C)C(C)C)[C@@H](C)CC)C(C)C)C(=O)N[C@@H](CCCNC(=N)N)C(=O)NCC(=O)N[C@@H](CO)C(=O)N[C@@H](CCCNC(=N)N)C(=O)N[C@@H](CC(=O)O)C(=O)N[C@H]3CSSC[C@H](NC(=O)[C@H](CCCNC(=N)N)NC(=O)[C@H](CO)NC(=O)[C@H](CC(N)=O)NC1=O)C(=O)N[C@@H](Cc1c[nH]cn1)C(=O)N[C@H](C(=O)N[C@H](C(=O)N1CCC[C@H]1C(=O)O)[C@@H](C)O)CSSC[C@H](NC(=O)[C@@H]1CCCN1C(=O)[C@H](CC(=O)O)NC(=O)[C@H](CC(C)C)NC3=O)C(=O)N[C@@H](CCCNC(=N)N)C(=O)N[C@@H](CCCNC(=N)N)C(=O)N[C@@H](C)C(=O)NCC(=O)N[C@@H](CCSC)C(=O)N[C@@H](CCCNC(=N)N)C(=O)N[C@@H](Cc1ccccc1)C(=O)NCC(=O)N[C@@H](CCCNC(=N)N)C(=O)N2` [Compound 24, Peptide(SEQ ID NO: 105)-adipic acid-Dex] (X5-GSGVPINVRCRGSRDCLDPCRRAGMRFGRCINSRCHCTP-OH; disulfide 10-30, 16-35, 20-37 (inferred); C-terminus assumed) gave a half-life at 0.25 mg/mL ([1]; Rat Plasma, release of free Dex, time points to 32 hr, read-out: Half-life (hours) as measured in the hydrolysis experiments (converted)) of 2.8 h and a half-life at 0.25 mg/mL [1, 4] of 2.6 h.
